Test results: patent US10383869B2, “Treatment with opioid antagonists and mTOR inhibitors” (THE UNIVERSITY OF CHICAGO, priority 2008, dated 2019)
Several values for one entry are separate records, joined by “and”; a condition that tells them apart may be missing. Equal entries are not always repeated. Where two headings read alike, the source gives them in different places.

Key:
[1] = system: human pulmonary microvascular endothelial cells (HPMVEC); test: Human pulmonary microvascular EC proliferation assay (VEGF-induced); assay type: cell-based
Description: Human pulmonary microvascular EC proliferation assay—For measuring cell growth, HPMVEC [5×10^3 cells/well] pretreated with various agents were incubated with 0.2 ml of serum-free media containing 100 nM VEGF for 24 h at 37° C. in 5% CO2195% air in 96-well culture plates. The in vitro cell proliferation assay was analyzed by measuring increases in cell number using the CellTiter96™ MTS assay (Promega, San Luis Obispo, Calif.) and read at 492 nm. Each assay was set up in triplicate, repeated at least five times and analyzed statistically by Student's t test (with statistical significance set at P<0.05).
(§1) Experiments were performed in triplicate. Error bars=standard deviation.
as §1

[2] = system: human pulmonary microvascular endothelial cells (HPMVEC); test: Human pulmonary microvascular EC migration assay (VEGF-induced, transwell); assay type: cell-based; conditions: VEGF 100 nM
Description: Human pulmonary microvascular EC migration assay—Twenty-four transwell units with […] pore size were used for monitoring in vitro cell migration. HPMVEC (˜1×10^4 cells/well) were plated with various treatments to the upper chamber and VEGF (100 nM) was added to the lower chamber. Cells were allowed to migrate for 18 hours. Cells from the upper and lower chamber were quantitated using the CellTiter96™ MTS assay (Promega, San Luis Obispo, Calif.) and read at 492 nm. Percent migration was defined as the # of cells in the lower chamber divided by the number of cells in both the upper and lower chamber. Each assay was set up in triplicate, repeated at least five times and analyzed statistically by Student's t test (with statistical significance set at P<0.05).
Synergistic effects of MNTX with Temsirolimus on inhibition of VEGF—induced human EC proliferation and migration. Inhibition curves of human EC assayed for VEGF (100 nM)-induced proliferation and migration (24 hours) in the presence or absence of 0.1, 1.0, 10, 100 or 500 nM MNTX, Temsirolimus or 10 nM MNTX+Temsirolimus. MNTX inhibited EC VEGF-induced proliferation with an IC50 of ˜100 nM. Adding 10 nM MNTX to EC shifted the IC50 of Temsirolimus inhibition of VEGF-induced proliferation from ˜10 nM to ˜1 nM. Experiments were performed in triplicate. Error bars=standard deviation. […]

[3] = system: Akt; test: VEGF-induced Akt activation (phosphorylation) immunoblot in human pulmonary microvascular endothelial cells; assay type: cell-based; conditions: for VEGF-induced phosphorylation (activation) of Akt at serine 473 and threonine 308: human EC, VEGF 100 nM 5 minutes, 1 hour pre-treatment with 100 nM compound
Description: To assess the effects of methylnaltrexone (MNTX) on the VEGF-induced activation of the serine/threonine kinase Akt, a well-characterized endothelial cell line, human pulmonary microvascular endothelial cells (HPMVEC), was used. HPMVEC were serum starved for one hour and either untreated (control) or treated with VEGF (100 nM, 5 minutes) with or without pre-treatment (1 hour) with 100 nM MNTX, 100 ng/ml bevacizumab, 100 μM 5-FU, 100 nM MNTX+100 ng/ml bevacizumab or 100 nM MNTX+100 μM 5-FU. Cell lysates were obtained, run on SDS-PAGE and immunoblotted with anti-pSer^473Akt, anti-pThr^308Akt, anti-Akt or anti-actin antibody.
Cell Culture and Reagents—Human pulmonary microvascular EC were obtained from Cambrex (Walkersville, Md.) and cultured as previously described (Singleton et al. (2006), Microvasc. Res. 72(1-2):3-11; Singleton et al. (2007), Am. J. Respir. Cell Mol. Biol. 37(2):222-231) in EBM-2 complete medium (Cambrex) at 37° C. in a humidified atmosphere of 5% CO2, 95% air, with passages 6-10 used for experimentation. Unless otherwise specified, reagents were obtained from Sigma (St. Louis, Mo.). Vascular endothelial growth factor (VEGF) was purchased from R&D Systems (Minneapolis, Minn.). Methylnaltrexone bromide (MNTX) was purchased from Mallinckrodt Specialty Chemicals (Phillipsburg, N.J.). Bevacizumab was purchased from Genentech (South San Francisco, Calif.). 5-fluorouracil (5-FU) was purchased from Abraxis Pharmaceutical Products (Schaumburg, Ill.). Naltrexone and rapamycin were purchased from Sigma (St. Louis, Mo.). Reagents for SDS-PAGE electrophoresis were purchased from Bio-Rad (Richmond, Calif.) and Immobilon-P transfer membrane was purchased from Millipore (Millipore Corp., Bedford, Mass.). Rabbit anti-pSer^473Akt, rabbit anti-pThr^308Akt and rabbit anti-Akt antibodies were purchased from Cell Signaling Technologies (Danvers, Mass.). Mouse anti-β-actin antibody was purchased from Sigma (St. Louis, Mo.). Secondary horseradish peroxidase (HRP)-labeled antibodies were purchased from Amersham Biosciences (Piscataway, N.J.). […]

[4] = system: T1, mTOR Complex 1 (Homo sapiens); test: VEGF-induced mTOR complex formation, anti-Raptor immunoprecipitation and immunoblot; assay type: cell-based; conditions: human EC, VEGF 100 nM 5 minutes, 1 hour pretreatment with 100 nM compound
T1 construct: EC lysates were obtained and immunoprecipitated with anti-Raptor (mTOR Complex 1 component); endogenous in cells; host or cells: human endothelial cells (EC)
Description: (§2) Analysis of mTOR Complex Formation and Regulation of Akt Phosphorylation—Human EC were serum starved for one hour and either untreated (control) or treated with VEGF (100 nM, 5 minutes) with or without pretreatment (1 hour) with 100 nM MNTX or 100 nM Temsirolimus. EC lysates were obtained and immunoprecipitated with anti-Raptor (mTOR Complex 1 component) or anti-Rictor (mTOR complex 2 component) antibody. The immunoprecipitated material was run on SDS-PAGE and immunoblotted with either anti-mTOR, anti-FKBP12, anti-Raptor, anti-SIN1 or anti-Rictor antibody. To investigate the regulation of Akt phosphorylation, human EC were serum starved for one hour and either untreated (control) or treated with VEGF (100 nM, 5 minutes) with or without pretreatment with the PI3 kinase inhibitor, LY294002 (10 μM, 1 hour), Src siRNA or Rictor (mTOR complex 2 component) siRNA. EC lysates were obtained, run on SDS-PAGE and immunoblotted with anti-pSer^473Akt, anti-pThr^308Akt or anti-Akt antibody.

[5] = system: mTOR Complex 2; test: VEGF-induced mTOR complex formation, anti-Rictor immunoprecipitation and immunoblot; assay type: cell-based; conditions: human EC, VEGF 100 nM 5 minutes, 1 hour pretreatment with 100 nM compound
Description: as §2

[6] = white crystalline powder, typically the bromide salt, as commercially provided; cited from earlier work

In the case of `CN(N=O)c1ccc(O)c(O)c1` [3,4-dephostatin], the “effect of PTP inhibitor on VEGF-induced EC proliferation” value ([1]; VEGF 100 nM, 24 hours, with Temsirolimus with or without 10 nM MNTX) is reported as “inhibited” and the “effect of PTP inhibitor on VEGF-induced EC migration” value ([2]; 24 hours, with Temsirolimus with or without 10 nM MNTX) is reported as “inhibited”.
In the case of `C[N@+]1(CC2CC2)CC[C@]23c4c5ccc(O)c4O[C@H]2C(=O)CC[C@@]3(O)[C@H]1C5` [methylnaltrexone, N-methylnaltrexone], the “inhibition of VEGF-induced pSer473Akt and pThr308Akt immunoreactivity, dose relation” value ([3]; 1.0, 10, 100, 1000 nM MNTX) is reported as “dose-dependent”, the “VEGF-induced phosphorylation (activation) of Akt at serine 473 and threonine 308” value [3] is reported as “abrogated” and the IC50 ([1]; Homo sapiens, Endothelial cell, 24 h, read-out: IC50 of inhibition of VEGF-induced EC proliferation) is reported as roughly 100 nM. The “VEGF-induced formation of mTOR Complex I” value [4] was “inhibits”, the “VEGF-induced formation of mTOR Complex II” value [5] was “inhibits” and the solubility in water [6] was “freely soluble in water”.
For `CO[C@H]1C[C@@H]2CC[C@@H](C)[C@@](O)(O2)C(=O)C(=O)N2CCCC[C@H]2C(=O)O[C@H]([C@H](C)C[C@@H]2CC[C@@H](OC(=O)C(C)(CO)CO)[C@H](OC)C2)CC(=O)[C@H](C)/C=C(\C)[C@@H](O)[C@@H](OC)C(=O)[C@H](C)C[C@H](C)/C=C/C=C/C=C/1C` [temsirolimus], the “VEGF-induced phosphorylation (activation) of Akt at serine 473 and threonine 308” value [3] was “did not inhibit”, the IC50 ([1]; VEGF 100 nM, 24 hours, compound alone, read-out: IC50 of inhibition of VEGF-induced EC proliferation) was ~10 nM and 10 nM and the IC50 ([1]; VEGF 100 nM, 24 hours, plus 10 nM MNTX, read-out: IC50 of inhibition of VEGF-induced EC proliferation with 10 nM MNTX added) was roughly 1 nM. The IC50 ([1]; VEGF 100 nM, 24 hours, presence of 3,4-Dephostatin, read-out: IC50 of inhibition of VEGF-induced EC proliferation in the presence of 3,4-Dephostatin) was 15 nM, the “VEGF-induced formation of mTOR Complex I” value [4] was “mTOR complex II only” and the “VEGF-induced formation of mTOR Complex II” value [5] was “inhibits”.
For rapamycin, the “inhibition of VEGF-induced endothelial cell proliferation” value ([1]; VEGF 100 nM, 0.01, 0.1, 1.0 or 10 nM rapamycin) was “dose-dependent inhibition” and the “inhibition of VEGF-induced endothelial cell migration” value ([2]; 0.01, 0.1, 1.0 or 10 nM rapamycin) was “dose-dependent inhibition”.
